Assay results from BigSolDB 2.1.

CCOc1cc(C=O)ccc1O
solubility (mole fraction)
Conditions | 273.15 K | 278.15 K | 283.15 K | 288.15 K | 293.15 K | 298.15 K | 303.15 K | 308.15 K | 313.15 K
in acetone | 0.199 | 0.216 | 0.237 | 0.271 | 0.3 | 0.33 | 0.369 | 0.416 | 0.459
in ethanol | 0.0564 | 0.0721 | 0.0911 | 0.109 | 0.141 | 0.183 | 0.224 | 0.283 | 0.34
in isopropanol | 0.0336 | 0.0433 | 0.0552 | 0.072 | 0.0957 | 0.124 | 0.166 | 0.221 | 0.294
in methanol | 0.0867 | 0.114 | 0.147 | 0.181 | 0.214 | 0.257 | 0.307 | 0.358 | 0.418
